By Kd is commonly meant the constant that tells how readily two partners part at equilibrium.

Where “and” joins values, the source holds several entries; their conditions need not be identical. Equal entries are not always repeated. Where no end group is shown, it is not given here.

In one assay the target is Kiss1R (Homo sapiens) (UniProt Q969F8). The conditions noted are these: cited from earlier work.
Assay [1] concerns GnRH neurons. The conditions noted are these: mice and guinea pigs; cited from earlier work.
Assay [2] deals with GnRH neurons.
Assay [3] has as its system GnRH neurons. The assay can be described thus: Spontaneous action potential firing, current clamp, slices from female rats. Format: cell-based, rat. The conditions noted are these: 7-10 min after addition.
Assay [4] has as its system GnRH neurons. As to the kind of experiment: Current-voltage. Format: cell-based, rat. As to conditions: 100 nM Kp-10, compared to control; representative recording (Figure 5B).
Assay [5] concerns GnRH neurons. As to conditions: adult male mouse; cited from earlier work.
Assay [6] has as its system GnRH neurons. It is filed as cell-based, rat.

Sequence of Kp-10 (Q15726 whole entry, looked up): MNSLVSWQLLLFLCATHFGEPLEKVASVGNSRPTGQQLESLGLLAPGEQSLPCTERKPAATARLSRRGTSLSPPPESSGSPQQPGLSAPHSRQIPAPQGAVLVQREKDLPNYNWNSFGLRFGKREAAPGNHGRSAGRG
Sequence of UniProt Q969F8 (Q969F8 whole entry): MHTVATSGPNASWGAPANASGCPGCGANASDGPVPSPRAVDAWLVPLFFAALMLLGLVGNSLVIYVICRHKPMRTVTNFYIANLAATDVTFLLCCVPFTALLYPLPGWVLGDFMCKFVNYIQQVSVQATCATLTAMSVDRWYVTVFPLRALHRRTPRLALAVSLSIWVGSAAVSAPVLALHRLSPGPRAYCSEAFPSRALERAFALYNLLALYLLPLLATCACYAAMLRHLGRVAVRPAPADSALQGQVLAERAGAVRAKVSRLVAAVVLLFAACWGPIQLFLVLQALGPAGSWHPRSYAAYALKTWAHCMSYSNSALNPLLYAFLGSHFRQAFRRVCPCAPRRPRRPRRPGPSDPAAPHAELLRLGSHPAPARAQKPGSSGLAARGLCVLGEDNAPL

Consider Kp-10 (from UniProt Q15726), for which the Kd in the assay with Kiss1R (Homo sapiens) was 2.7 nM.
Regarding “YNWNSFGLRY-NH2 [Kp-10, Mouse KiSS-1 (110–119)-NH2]”, in the assay with GnRH neurons [1], the “reversal potential of kisspeptin-induced currents” value was −100 to −110 mV. Further, in the assay with GnRH neurons [2] (10 nM Kp-10, TTX, mean ± SEM), the “depolarization by submaximal dose” value was determined as 14.6 ± 2.3 mV. Besides, the maximum depolarization in the assay on GnRH neurons [2] (100 nM Kp-10, TTX, mean ± SEM) is given as 20.2 ± 1.2 mV. Moreover, in the assay with GnRH neurons [2] (current clamp, TTX 1.0 μM, female rats), the “depolarization, in words” value is given as “very prolonged, concentration-dependent depolarization of GnRH neurons that persisted long after washout of the agonist”. In addition, the “cells responding to kisspeptin” value in the assay with GnRH neurons [2] (female rats, current clamp, TTX) is on record as “Approximately 90%”. Further, in the assay on GnRH neurons [3], the “effect on action potential firing, in words” value was “stimulated the cell”. For the same substance, the “reversal potential of kisspeptin-induced current” value in the assay with GnRH neurons [4] is −110 mV. Further, the “GnRH neurons activated by kisspeptin” value in the assay with GnRH neurons [5] was “about 90%”.
With “CART: Cocaine and Amphetamine Regulated Transcript (55–102, rat), American Peptide Company, excitatory neuropeptide (IPIYEKKYGQVPMCDAGEQCAVRKGARIGKLCDCPRGTSCNSFLLKCL; ends and bridges not checked; cysteine pairing not given here; UniProt P49192 82-129, looked up, fragment)”, the “CART-induced firing and depolarization, in words” value in the assay on GnRH neurons [6] is listed as “persisted long after washout”. Further, the “GnRH neurons responding to CART” value with GnRH neurons [6] (30 nM CART, 8 out of 12 cells from 5 animals, without TTX) is on record as 60–70%. Further, the “membrane depolarization by CART alone under TTX” value in the assay with GnRH neurons [6] (30 nM CART, TTX, n = 12 cells from 6 animals, mean ± SEM) was 7.3 ± 0.6 mV and 7.3 ± 0.64 mV. Further, the “membrane depolarization by CART” value in the assay with GnRH neurons [6] (30 nM CART, without TTX, p<0.0001) was determined as 7.8 ± 0.1 mV.
